Source: ChEMBL document CHEMBL4665765, “Antimalarial activity of tetrahydro-β-carbolines targeting the ATP binding pocket of the Plasmodium falciparum heat shock 90 protein” (Bioorg Med Chem Lett, 2020)

Legend:
[1] = Therapeutic index, ratio of EC50 for cytotoxicity against human BJ cells to EC50 for antimalarial activity against Plasmodium falciparum 3D7; type: toxicity, cell-based; details: read-out: Ratio EC50
BJ = assay: Cytotoxicity against human BJ cells; type: cell-based
Plasmodium falciparum [2] = assay: Antimalarial activity against chloroquine-sensitive Plasmodium falciparum 3D7 infected in o-positive erythrocyte assessed as reduction in parasite growth; type: functional, organism-based; details: 3D7, Erythrocyte
HeLa = assay: Cytotoxicity against human HeLa cells assessed as reduction in cell viability incubated for 48 hrs by CCK8 assay; type: cell-based
HepG2 = assay: Cytotoxicity against human HepG2 cells assessed as reduction in cell viability incubated for 48 hrs by CCK8 assay; type: cell-based; details: HepG2, 48 h
Plasmodium falciparum [3] = assay: Antimalarial activity against Plasmodium falciparum 3D7 infected in erythrocytes assessed as reduction in parasite growth incubated for 72 hrs by SYBR green dye based fluorescence assay; type: functional, organism-based; details: 3D7, Erythrocyte

| SMILES | selectivity ratio [1] | EC50 (BJ) | EC50 (Plasmodium falciparum [2]) | EC50 (HeLa) | EC50 (HepG2) | EC50 (Plasmodium falciparum [3]) |
| --- | --- | --- | --- | --- | --- | --- |
| Oc1ccc(C2NCCc3c2[nH]c2ccc(Cl)cc32)cc1 (stereo unspecified) | 5 | > 24 µM | 4.45 µM | – | – | – |
| Clc1ccc(C2NCCc3c2[nH]c2ccc(Cl)cc32)cc1 (stereo unspecified) | 2 | 23 µM | 13.3 µM | – | – | – |
| Clc1cccc(C2NCCc3c2[nH]c2ccc(Cl)cc32)c1 (stereo unspecified) | 9 | 23.6 µM | 2.53 µM | – | – | – |
| Cc1ccc(C2NCCc3c2[nH]c2ccc(Cl)cc32)cc1 (stereo unspecified) | 1 | > 24 µM | 17.9 µM | – | – | – |
| Oc1ccccc1C1NCCc2c1[nH]c1ccc(Cl)cc21 (stereo unspecified) | 4 | 15.7 µM | 4.35 µM | – | – | – |
| Clc1ccc2[nH]c3c(c2c1)CCNC3c1cccc2ccccc12 (stereo unspecified) | 3 | > 24 µM | 7.06 µM | – | – | – |
| Cc1cccc(C2NCCc3c2[nH]c2ccc(Cl)cc32)c1 (stereo unspecified) | 68 | > 24 µM | 0.352 µM | – | – | – |
| Clc1ccc2[nH]c3c(c2c1)CCNC3c1ccc2ccccc2c1 (stereo unspecified) | 1 | 17.2 µM | 16.6 µM | – | – | – |
| Clc1ccc2[nH]c3c(c2c1)CCNC3C1CCCCC1 (stereo unspecified) | 2 | > 24 µM | 12.1 µM | – | – | – |
| Clc1ccc2[nH]c3c(c2c1)CCNC3c1ccccc1 (stereo unspecified) | 14 | > 24 µM | 1.67 µM | – | – | – |
| CC1NCCc2c1n(C)c1ccc(Cl)cc21 (stereo unspecified) | 1 | > 24 µM | > 18 µM | – | – | – |
| Clc1ccc2[nH]c3c(c2c1)CCNC3Cc1ccccc1 (stereo unspecified) | 2 | > 24 µM | 10.9 µM | – | – | – |
| Clc1ccc2[nH]c3c(c2c1)CCNC3c1ccccc1Cl (stereo unspecified) | 12 | > 24 µM | 1.94 µM | – | – | – |
| CC1NCCc2c1[nH]c1ccc(Cl)cc21 (stereo unspecified) | – | – | – | 1100 µM | 160 µM | 12.2 µM |
| Oc1cccc(C2NCCc3c2[nH]c2ccc(Cl)cc32)c1 (stereo unspecified) | 3 | > 24 µM | 7.53 µM | – | – | – |
| CCn1c2c(c3cc(Cl)ccc31)CCNC2C (stereo unspecified) | 1 | > 24 µM | > 18 µM | – | – | – |
| Cc1ccccc1C1NCCc2c1[nH]c1ccc(Cl)cc21 (stereo unspecified) | 12 | > 24 µM | 2.08 µM | – | – | – |
